Common to all, as to assay type: physicochemical
A short description of data set [1]: Solubility determinations of HCl salt forms vs. free base (DI water, 0.1 N HCl). Conditions: for Solubility / Solid-state Residue (X-Ray-Diffraction): 37° C., 24 hours. On the procedure: (§1) All dispersions were agitated at 37° C. for 24 hours. Dispersions were then filtered via the internal filter of the Uniprep vials, and clear filtrates were analysed by HPLC for dissolved quantities of Compound C.
(§2) Solid state residues were analysed by X-Ray-Diffraction for identity with the initially used materials.

Data set [2] can be described thus: API dissolution studies in Flow-Through-Cell system. The note with it: for dissolution in various buffer systems: 37° C., pH range 1.2 to 6.8; for % dissolved levels after 30 minutes: flow rate 16 mL/min. The method, then:
Approximately 10 mg of Forms A1, A2 or B1, respectively, were accurately weighed and blended with 2 g glass beads in a Vortex mixer. The blends were then placed into a powder cell of a Flow-Through-Cell system. Dissolution studies were performed at 37° C. over 30-60 minutes at a constant flow rate of 16 mL/min. Fractions of dissolution medium after passing the Flow-Through-Cell were collected in 1 minute intervals in the first 10 minutes, in 5 minute intervals from 10-30 minutes, and in 15 minute intervals from 30-60 minutes. Dissolved levels of API in each fraction were analysed by HPLC. In dissolution experiments with HCl salt forms at pH 5.0 and pH 6.8, free base fractions which precipitated over time from the initially clear solutions in the collected dissolution fractions were re-dissolved by addition of sulphuric acid prior to HPLC analysis. All experiments were performed as triplicate preparations, with results reported as mean values from triplicates, and error bars as single standard deviations from the triplicates.

Data set [3] is described as follows: Water Vapour Sorption isotherm (25° C.), DVS-1 System. The note with it: for water uptake at elevated RH: above 80% RH. The method, then:
(§3) The DSC scan of Form A1 was acquired on a Mettler-Toledo DSC 821 with a heating rate of 5 K/min, using nitrogen purge gas at 50 mL/min. […] Form A1 can be classified as non-hygroscopic according to Ph. Eur. Criteria (section 5.11.).
The DSC scan of Form A2 was acquired on a Mettler-Toledo DSC 821 with a heating rate of 5 K/min, using nitrogen purge gas at 50 mL/min. […] Eur. Criteria (section 5.11.). […]
(§4) Eur. criteria. […] Water Vapour Sorption isotherm was acquired on a DVS-1 System from SMS. • Solubility in USP phosphate buffer (pH 7.4) at 37° C. was determined to be approx. 70 μg/mL (see Example 7).

Data set [4] is described as follows: Thermal behaviour (DSC and TGA). The note with it: heating rate 5 K/min. On the procedure: as §3
The DSC scan of Form A2 was acquired on a Mettler-Toledo DSC 821 with a heating rate of 5 K/min, using nitrogen purge gas at 50 mL/min. […] Eur. Criteria (section 5.11.).
DSC scan of Form B1 was acquired on a Mettler-Toledo DSC 821 with a heating rate of 5 K/min, using nitrogen purge gas at 50 mL/min. […] Eur. criteria.
as §4

The nature of data set [5]: Thermodynamic solubility of Forms B1 and B2 in USP Phosphate Buffer (pH 7.4). The note with it: for Solid-state Residue (X-Ray-Diffraction): #1 + #2. On the procedure:
Approximately 17 mg of Compound C (free base) crystalline form B1 were dispersed in 2 mL USP Phosphate Buffer (pH 7.4) in Whatman Uniprep Syringless Filter vials in duplicate preparations.
Approximately 17 mg of Compound C (free base) crystalline form B2 were dispersed in 2 mL USP Phosphate Buffer (pH 7.4) in Whatman Uniprep Syringless Filter vials in duplicate preparations.
as §1, §2

A short description of data set [6]: Solvent-mediated competitive slurry conversion experiments with binary phase mixtures of Forms B1+B2. Conditions: RT and 50° C. On the procedure: Approximately 10 mg of Compound C (free base) crystalline form B1 and approx. 5 mg of Compound C (free base) crystalline form B2 were dispersed in 200-1000 μL solvent in 4-mL glass vials. A PTFE-coated magnetic stirring bar was inserted into the dispersions, and the vials were tightly closed with a screw cap containing a septum. Dispersions were agitated for 5 days on a magnetic stirrer at ambient conditions (˜23° C.) and 50° C., respectively. Dispersions were then vacuum-filtrated over a Whatman paper filter, and collected filter residues were analysed by X-Ray-Diffraction for identity with the initially used materials.

[7] abbreviates: 0.1N HCl, listed as HCl salt Form A1.
The mark [8] stands for this setting: 0.1N HCl, listed as HCl salt Form A2.
[9] abbreviates: USP phosphate buffer (pH 7.4), 37° C., 24 hours.
The mark [10] stands for this setting: 0.1N HCl, listed as Free Base Form B1.
Where [11] appears, read: relative humidity (RH) range 0-80% RH.

In brackets after ≈: the same amount, converted by molar mass. Entries after “also recorded” stand apart in the source; their conditions may differ.

Broadly, the Solubility is how much of the substance goes into solution per volume. For the compound `O=C(NC[C@H](O)CO)c1ccncc1Nc1ccc(I)cc1F` [Form A1, N—((S)-2,3-Dihydroxy-propyl)-3-(2-fluoro-4-iodo-phenylamino)-isonicotinamide], in data set [1], the “aqueous solubility compared to the free base” value is recorded as “significantly improved”. The “solubility as compared to forms B1 and B2” value in data set [1] is “higher”. Moreover, the Solubility entry in data set [1] (0.1N HCl) was “approx. 44 mg/mL”; in data set [1] (setting [7]) it was 43.6 mg/mL; in data set [1] (DI Water), “approx. 2.8 mg/mL”; in data set [1] (DI Water, listed as HCl salt Form A1), 2.8 mg/mL. Moreover, the “Solid-state Residue (X-Ray-Diffraction)” value in data set [1] (setting [7]) was “HCl salt Form A1”; in data set [1] (Water), “Free base Form B1”. In addition, in data set [2], the “dissolution kinetics as compared to forms B1 and B2” value is “faster”. The “dissolution in various buffer systems” value in data set [2] was “rapid and complete dissolution”. Moreover, the “% dissolved levels after 30 minutes” value in data set [2] (pH 1.2, 37° C., listed as HCl Salt Form A1) stood at 100%; in data set [2] (pH 3.0, 37° C., listed as HCl Salt Form A1) it was 100%; in data set [2] (pH 5.0, 37° C., listed as HCl Salt Form A1) it was 97%; in data set [2] (pH 6.8, 37° C., listed as HCl Salt Form A1), 96%. Also, the “hygroscopicity (classification acc. to Ph. Eur. criteria, section 5.11.)” value (shortened to “hygroscopicity”) in data set [3] is given as “non-hygroscopic; also recorded: slightly hygroscopic”. The compound also came in with a water uptake levels in data set [3] (entire relative humidity range 0-98% RH) of less than 0.1 wt %. Besides, in data set [4], the thermal stability entry is on record as “sufficient”.

With `O=C(NC[C@H](O)CO)c1ccncc1Nc1ccc(I)cc1F` [Form A2, N—((S)-2,3-Dihydroxy-propyl)-3-(2-fluoro-4-iodo-phenylamino)-isonicotinamide], the “aqueous solubility compared to the free base” value in data set [1] is “significantly improved”. The “solubility as compared to forms B1 and B2” value in data set [1] is “higher”. Further, the Solubility is greater than 20 mg/mL in data set [1] (0.1N HCl); greater than 20 mg/mL in data set [1] (setting [8]); “approx. 2.5 mg/mL” in data set [1] (DI Water); 2.5 mg/mL in data set [1] (DI Water, listed as HCl salt Form A2). In addition, the “Solid-state Residue (X-Ray-Diffraction)” value is “No residue obtained” in data set [1] (setting [8]) and “Free base Form B1” in data set [1] (Water). The “dissolution kinetics as compared to forms B1 and B2” value in data set [2] was “faster”. Moreover, the “dissolution in various buffer systems” value in data set [2] was “rapid and complete dissolution”. Moreover, the “% dissolved levels after 30 minutes” value stood at 99% in data set [2] (pH 1.2, 37° C., listed as HCl Salt Form A2); 100% in data set [2] (pH 3.0, 37° C., listed as HCl Salt Form A2); 98% in data set [2] (pH 5.0, 37° C., listed as HCl Salt Form A2); 96% in data set [2] (pH 6.8, 37° C., listed as HCl Salt Form A2). The “Water Vapour Sorption behaviour” value in data set [3] is “small water uptake levels only”. The “hygroscopicity” value in data set [3] is “slightly hygroscopic”. Moreover, in data set [4], the thermal stability result is reported as “sufficient”.

In general, solubility refers to the concentration that dissolves in the medium under given conditions. For the compound `O=C(NC[C@H](O)CO)c1ccncc1Nc1ccc(I)cc1F` [Form B1, N—((S)-2,3-Dihydroxy-propyl)-3-(2-fluoro-4-iodo-phenylamino)-isonicotinamide], the “Solid-state Residue (X-Ray-Diffraction)” value in data set [5] (setting [9]) is listed as “Free Base Form B1”; in data set [1] (setting [10]), “HCI salt Form A1”; in data set [1] (Water) it was “Free base Form B1”. The solubility at 24 h in data set [5] (USP phosphate buffer, 37 °C, pH 7.4, aqueous buffer, thermodynamic from solid, USP phosphate buffer (pH 7.4), 24 hours, duplicate preparations #1, #2) is roughly 50 µg/mL (≈ 116 µM). For the same compound, the Solubility in data set [1] (setting [10]) is 17.5 mg/mL; in data set [1] (DI Water, listed as Free Base Form B1), less than 0.1 mg/mL. In addition, the “thermodynamic stability of free base forms B1 vs B2” value is “thermodynamically more stable free base form; also recorded: thermodynamically stable” in data set [6] and “more stable form” in data set [6] (listed as form B1). Further, the “% dissolved levels after 30 minutes” value in data set [2] (pH 1.2, 37° C., listed as Free base Form B1) amounted to 100%; in data set [2] (pH 3.0, 37° C., listed as Free base Form B1) it was 83%; in data set [2] (pH 5.0, 37° C., listed as Free base Form B1) it was 57%; in data set [2] (pH 6.8, 37° C., listed as Free base Form B1), 52%. In addition, the “hygroscopicity” value in data set [3] was “slightly hygroscopic”. The “water uptake at elevated RH” value in data set [3] is given as “slightly enhanced”. The compound also displayed a water uptake levels in data set [3] (setting [11]) of less than 1 wt %. For the same compound, the thermal stability entry in data set [4] is recorded as “sufficient”.

`O=C(NC[C@H](O)CO)c1ccncc1Nc1ccc(I)cc1F` [Form B2, N—((S)-2,3-Dihydroxy-propyl)-3-(2-fluoro-4-iodo-phenylamino)-isonicotinamide]: the “supersaturated solubility level compared to form B1” value in data set [5] (PBS buffer pH 7.4, 37° C.) is reported as “increased”. Also, the “Solid-state Residue (X-Ray-Diffraction)” value in data set [5] (setting [9]) is on record as “Free Base Form B1”. In addition, the Solubility result in data set [5] (USP phosphate buffer (pH 7.4), 37° C., 24 hours, duplicate preparations #1, #2) is recorded as “approx. 70 μg/mL”. Besides, in data set [3], the “hygroscopicity” value is given as “slightly hygroscopic” and the “water uptake at elevated RH” value is recorded as “slightly enhanced”. For the same compound, in data set [3] (setting [11]), the water uptake levels was roughly 1 wt %. Moreover, the thermal stability result in data set [4] is recorded as “sufficient”.

(Values after patent US9260393B2, “Solid state forms of N-((S)-2,3-dihydroxy-propyl)-3-(2-fluoro-4-iodo-phenylamino)-isonicotinamide” (Merck Patent GmbH, priority 2012, dated 2016).)
